Laboratory results published in patent US9751926B2 (priority 2013, dated 2017).
Non-standard residues stand in square brackets, D forms with d. Residues, ends and D or L forms follow the SMILES beside them. Met(O2) = CS(=O)(=O)CC[C@H](N)C(=O)O; Aib = CC(C)(N)C(=O)O

Legend:
[1] = physchem; type: physicochemical
[2] = target: T1, human glucagon receptor (Homo sapiens, UniProt P47871); experiment: cAMP response (HTRF) of HEK-293 cells stably expressing human glucagon receptor; type: cell-based; details: Table 6; formed cAMP; read-out: EC50 hGLUC R
T1 construct: expressed in transfected cells
T1 sequence (P47871 26-477): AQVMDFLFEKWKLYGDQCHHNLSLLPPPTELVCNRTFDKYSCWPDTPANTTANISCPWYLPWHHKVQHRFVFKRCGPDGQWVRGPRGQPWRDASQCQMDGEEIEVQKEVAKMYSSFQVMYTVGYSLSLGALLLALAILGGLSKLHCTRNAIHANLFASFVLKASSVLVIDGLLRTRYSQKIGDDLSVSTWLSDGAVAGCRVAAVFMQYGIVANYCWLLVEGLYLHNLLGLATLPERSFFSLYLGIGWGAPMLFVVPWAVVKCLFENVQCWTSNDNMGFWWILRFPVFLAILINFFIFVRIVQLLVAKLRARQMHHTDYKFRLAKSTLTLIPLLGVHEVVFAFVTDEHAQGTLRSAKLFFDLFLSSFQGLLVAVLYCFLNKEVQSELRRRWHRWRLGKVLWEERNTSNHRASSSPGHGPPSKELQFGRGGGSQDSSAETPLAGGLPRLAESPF
Method: (§1) cAMP content of cells was determined using a kit from Cisbio Corp. (cat. no. 62AM4PEC) based on HTRF (Homogenous Time Resolved Fluorescence). For preparation, cells were split into T175 culture flasks and grown overnight to near confluency in medium (DMEM/10% FBS). Medium was then removed and cells washed with PBS lacking calcium and magnesium, followed by proteinase treatment with accutase (Sigma-Aldrich cat. no. A6964). Detached cells were washed and resuspended in assay buffer (1×HBSS; 20 mM HEPES, 0.1% BSA, 2 mM IBMX) and cellular density determined. They were then diluted to 400000 cells/ml and 25 μl-aliquots dispensed into the wells of 96-well plates. For measurement, 25 μl of test compound in assay buffer was added to the wells, followed by incubation for 30 minutes at room temperature.

[3] = target: T2, human GLP-1 receptor (Homo sapiens, UniProt P43220); experiment: cAMP response (HTRF) of HEK-293 cells stably expressing human GLP-1 receptor; type: cell-based; details: Table 6; formed cAMP; read-out: EC50 hGLP-1 R
T2 construct: expressed in transfected cells
T2 sequence (P43220 24-463): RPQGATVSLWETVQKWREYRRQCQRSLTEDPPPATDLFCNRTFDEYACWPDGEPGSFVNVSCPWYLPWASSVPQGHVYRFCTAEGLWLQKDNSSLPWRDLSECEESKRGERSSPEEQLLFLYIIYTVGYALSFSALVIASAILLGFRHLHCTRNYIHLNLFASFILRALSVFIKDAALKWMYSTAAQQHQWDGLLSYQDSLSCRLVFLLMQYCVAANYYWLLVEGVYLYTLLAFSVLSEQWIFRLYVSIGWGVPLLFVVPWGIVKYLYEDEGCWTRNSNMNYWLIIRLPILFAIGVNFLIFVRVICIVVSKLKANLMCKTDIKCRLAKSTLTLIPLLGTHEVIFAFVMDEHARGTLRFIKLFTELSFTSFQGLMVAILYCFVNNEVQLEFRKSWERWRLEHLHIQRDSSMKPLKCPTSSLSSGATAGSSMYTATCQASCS
Method: as §1

Row | Structure (SMILES) | solubility at 2 h ([1]; pH 4.5) [mg/mL] | solubility at 2 h ([1]; pH 7.4) [mg/mL] | EC50 [2] [nM] | EC50 [3] [nM]
1 | CC[C@H](C)[C@H](NC(=O)[C@H](CO)NC(=O)[C@H](CC(C)C)NC(=O)[C@H](CC(=O)O)NC(=O)[C@H](CO)NC(=O)[C@@H](NC(=O)[C@H](Cc1ccccc1)NC(=O)[C@@H](NC(=O)CNC(=O)[C@H](CCC(=O)O)NC(=O)C(C)(C)NC(=O)[C@@H](N)Cc1ccc(O)cc1)[C@@H](C)O)[C@@H](C)O)C(=O)N[C@@H](CCC(N)=O)C(=O)N[C@@H](CCS(C)(=O)=O)C(=O)N[C@@H](CCC(=O)O)C(=O)N[C@@H](CCCCN)C(=O)N[C@@H](CCC(=O)O)C(=O)N[C@@H](C)C(=O)N[C@H](C(=O)N[C@@H](CCCNC(=N)N)C(=O)N[C@@H](CC(C)C)C(=O)N[C@@H](Cc1ccccc1)C(=O)N[C@H](C(=O)N[C@@H](CCC(=O)O)C(=O)N[C@@H](Cc1c[nH]c2ccccc12)C(=O)N[C@@H](CC(C)C)C(=O)N[C@@H](CCCCN)C(=O)N[C@@H](C)C(=O)NCC(=O)NCC(=O)N1CCC[C@H]1C(=O)N[C@@H](CO)C(=O)N[C@@H](CO)C(=O)NCC(=O)N[C@@H](C)C(=O)N1CCC[C@H]1C(=O)N1CCC[C@H]1C(=O)N1CCC[C@H]1C(=O)N[C@@H](CO)C(N)=O)[C@@H](C)CC)C(C)C [compound 14] (H-Y[Aib]EGTFTSDLSIQ[Met(O2)]EKEAVRLFIEWLKAGGPSSGAPPPS-NH2) | > 1 | > 1 | > 1000 | 
2 | CC[C@H](C)[C@H](NC(=O)[C@H](CO)NC(=O)[C@H](CC(C)C)NC(=O)[C@H](CC(=O)O)NC(=O)[C@H](CO)NC(=O)[C@@H](NC(=O)[C@H](Cc1ccccc1)NC(=O)[C@@H](NC(=O)CNC(=O)[C@H](CCC(=O)O)NC(=O)C(C)(C)NC(=O)[C@@H](N)Cc1ccc(O)cc1)[C@@H](C)O)[C@@H](C)O)C(=O)N[C@@H](CCC(N)=O)C(=O)N[C@@H](CC(C)C)C(=O)N[C@@H](CCC(=O)O)C(=O)N[C@@H](CCC(=O)O)C(=O)N[C@@H](CCC(=O)O)C(=O)N[C@@H](C)C(=O)N[C@H](C(=O)N[C@@](C)(CCCCN)C(=O)N[C@@H](CC(C)C)C(=O)N[C@@H](Cc1ccccc1)C(=O)N[C@H](C(=O)N[C@@H](CCC(=O)O)C(=O)N[C@@H](Cc1c[nH]c2ccccc12)C(=O)N[C@@H](CC(C)C)C(=O)N[C@@H](CCCCN)C(=O)N[C@@H](C)C(=O)NCC(=O)NCC(=O)N1CCC[C@H]1C(=O)N[C@@H](CO)C(=O)N[C@@H](CO)C(=O)NCC(=O)N[C@@H](C)C(=O)N1CCC[C@H]1C(=O)N1CCC[C@H]1C(=O)N1CCC[C@H]1C(=O)N[C@@H](CO)C(N)=O)[C@@H](C)CC)C(C)C [compound 17] |  |  | > 1000 | 0.0011
3 | CC[C@H](C)[C@H](NC(=O)[C@H](CO)NC(=O)[C@H](CC(C)C)NC(=O)[C@H](CC(=O)O)NC(=O)[C@H](CO)NC(=O)[C@@H](NC(=O)[C@H](Cc1ccccc1)NC(=O)[C@@H](NC(=O)CNC(=O)[C@H](CCC(=O)O)NC(=O)C(C)(C)NC(=O)[C@@H](N)Cc1ccc(O)cc1)[C@@H](C)O)[C@@H](C)O)C(=O)N[C@@H](CCC(N)=O)C(=O)N[C@@H](CC(C)C)C(=O)N[C@@H](CCC(=O)O)C(=O)N[C@@H](CCC(=O)O)C(=O)N[C@@H](CCC(=O)O)C(=O)N[C@@H](C)C(=O)N[C@H](C(=O)NC(C)(C)C(=O)N[C@@H](CC(C)C)C(=O)N[C@@H](Cc1ccccc1)C(=O)N[C@H](C(=O)N[C@@H](CCC(=O)O)C(=O)N[C@@H](Cc1c[nH]c2ccccc12)C(=O)N[C@@H](CC(C)C)C(=O)N[C@@H](CCCCN)C(=O)N[C@@H](C)C(=O)NCC(=O)NCC(=O)N1CCC[C@H]1C(=O)N[C@@H](CO)C(=O)N[C@@H](CO)C(=O)NCC(=O)N[C@@H](C)C(=O)N1CCC[C@H]1C(=O)N1CCC[C@H]1C(=O)N1CCC[C@H]1C(=O)N[C@@H](CO)C(N)=O)[C@@H](C)CC)C(C)C [compound 16] |  |  | > 1000 | 0.001
4 | CC[C@H](C)[C@H](NC(=O)[C@H](CO)NC(=O)[C@H](CC(C)C)NC(=O)[C@H](CC(=O)O)NC(=O)[C@H](CO)NC(=O)[C@@H](NC(=O)[C@H](Cc1ccccc1)NC(=O)[C@@H](NC(=O)CNC(=O)[C@H](CCC(=O)O)NC(=O)C(C)(C)NC(=O)[C@@H](N)Cc1ccc(O)cc1)[C@@H](C)O)[C@@H](C)O)C(=O)N[C@@H](CCC(N)=O)C(=O)N[C@@H](CC(C)C)C(=O)N[C@@H](CCC(=O)O)C(=O)N[C@@H](CCCCN)C(=O)N[C@@H](CCC(=O)O)C(=O)N[C@@H](C)C(=O)N[C@H](C(=O)N[C@@H](CCCNC(=N)N)C(=O)N[C@@H](CC(C)C)C(=O)N[C@@H](Cc1ccccc1)C(=O)N[C@H](C(=O)N[C@@H](CCC(=O)O)C(=O)N[C@@H](Cc1c[nH]c2ccccc12)C(=O)N[C@@H](CC(C)C)C(=O)N[C@@H](CCCCN)C(=O)N[C@@H](C)C(=O)NCC(=O)NCC(=O)N1CCC[C@H]1C(=O)N[C@@H](CO)C(=O)N[C@@H](CO)C(=O)NCC(=O)N[C@@H](C)C(=O)N1CCC[C@H]1C(=O)N1CCC[C@H]1C(=O)N1CCC[C@H]1C(=O)N[C@@H](CO)C(N)=O)[C@@H](C)CC)C(C)C [compound 10] |  |  |  | 0.0012
5 | CC[C@H](C)[C@H](NC(=O)[C@H](CO)NC(=O)[C@H](CC(C)C)NC(=O)[C@H](CC(=O)O)NC(=O)[C@H](CO)NC(=O)[C@@H](NC(=O)[C@H](Cc1ccccc1)NC(=O)[C@@H](NC(=O)CNC(=O)[C@H](CCC(=O)O)NC(=O)C(C)(C)NC(=O)[C@@H](N)Cc1ccc(O)cc1)[C@@H](C)O)[C@@H](C)O)C(=O)N[C@@H](CCC(N)=O)C(=O)N[C@@H](CC(C)C)C(=O)N[C@@H](CCC(=O)O)C(=O)N[C@@H](CCC(=O)O)C(=O)N[C@@H](CCC(=O)O)C(=O)N[C@@H](C)C(=O)N[C@H](C(=O)N[C@](C)(CCCCN)C(=O)N[C@@H](CC(C)C)C(=O)N[C@@H](Cc1ccccc1)C(=O)N[C@H](C(=O)N[C@@H](CCC(=O)O)C(=O)N[C@@H](Cc1c[nH]c2ccccc12)C(=O)N[C@@H](CC(C)C)C(=O)N[C@@H](CCCCN)C(=O)N[C@@H](C)C(=O)NCC(=O)NCC(=O)N1CCC[C@H]1C(=O)N[C@@H](CO)C(=O)N[C@@H](CO)C(=O)NCC(=O)N[C@@H](C)C(=O)N1CCC[C@H]1C(=O)N1CCC[C@H]1C(=O)N1CCC[C@H]1C(=O)N[C@@H](CO)C(N)=O)[C@@H](C)CC)C(C)C [compound 18] |  |  | > 1000 | 
6 | CC[C@H](C)[C@H](NC(=O)[C@H](CO)NC(=O)[C@H](CC(C)C)NC(=O)[C@H](CC(=O)O)NC(=O)[C@H](CO)NC(=O)[C@@H](NC(=O)[C@H](Cc1ccccc1)NC(=O)[C@@H](NC(=O)CNC(=O)[C@H](CCC(=O)O)NC(=O)C(C)(C)NC(=O)[C@@H](N)Cc1ccc(O)cc1)[C@@H](C)O)[C@@H](C)O)C(=O)N[C@@H](CCC(N)=O)C(=O)N[C@@H](CC[S+](C)[O-])C(=O)N[C@@H](CCC(=O)O)C(=O)N[C@@H](CCCCN)C(=O)N[C@@H](CCC(=O)O)C(=O)N[C@@H](C)C(=O)N[C@H](C(=O)N[C@@H](CCCNC(=N)N)C(=O)N[C@@H](CC(C)C)C(=O)N[C@@H](Cc1ccccc1)C(=O)N[C@H](C(=O)N[C@@H](CCC(=O)O)C(=O)N[C@@H](Cc1c[nH]c2ccccc12)C(=O)N[C@@H](CC(C)C)C(=O)N[C@@H](CCCCN)C(=O)N[C@@H](C)C(=O)NCC(=O)NCC(=O)N1CCC[C@H]1C(=O)N[C@@H](CO)C(=O)N[C@@H](CO)C(=O)NCC(=O)N[C@@H](C)C(=O)N1CCC[C@H]1C(=O)N1CCC[C@H]1C(=O)N1CCC[C@H]1C(=O)N[C@@H](CO)C(N)=O)[C@@H](C)CC)C(C)C (stereo partly shown) [compound 13] |  |  | > 1000 | 
7 | CC[C@H](C)[C@H](NC(=O)[C@H](CO)NC(=O)[C@H](CC(C)C)NC(=O)[C@H](CC(=O)O)NC(=O)[C@H](CO)NC(=O)[C@@H](NC(=O)[C@H](Cc1ccccc1)NC(=O)[C@@H](NC(=O)CNC(=O)[C@H](CCC(=O)O)NC(=O)C(C)(C)NC(=O)[C@@H](N)Cc1ccc(O)cc1)[C@@H](C)O)[C@@H](C)O)C(=O)N[C@@H](CCC(N)=O)C(=O)N[C@@H](CC(C)C)C(=O)N[C@@H](CCC(=O)O)C(=O)N[C@@H](CCCCN)C(=O)N[C@@H](CCC(=O)O)C(=O)N[C@@H](C)C(=O)N[C@H](C(=O)N[C@@H](CCCNC(=N)N)C(=O)N[C@@H](CC(C)C)C(=O)N[C@@H](Cc1ccccc1)C(=O)N[C@H](C(=O)N[C@@H](CCC(=O)O)C(=O)N[C@@H](Cc1c[nH]c2ccccc12)C(=O)N[C@@H](CC(C)C)C(=O)N[C@@H](CCCCN)C(=O)N[C@@H](C)C(=O)NCC(=O)NCC(=O)N1CCC[C@H]1C(=O)N[C@@H](CO)C(=O)N[C@@H](CO)C(=O)NCC(=O)N[C@@H](C)C(=O)N1CCC[C@H]1C(=O)N1CCC[C@H]1C(=O)N1CCC[C@H]1C(=O)N[C@@H](CO)C(N)=O)[C@@H](C)CC)C(C)C [compound 20] |  |  | > 1000 | 0.001
8 | CC[C@H](C)[C@H](NC(=O)[C@H](CO)NC(=O)[C@H](CC(C)C)NC(=O)[C@H](CC(=O)O)NC(=O)[C@H](CO)NC(=O)[C@@H](NC(=O)[C@H](Cc1ccccc1)NC(=O)[C@@H](NC(=O)CNC(=O)[C@H](CCC(=O)O)NC(=O)C(C)(C)NC(=O)[C@@H](N)Cc1ccc(O)cc1)[C@@H](C)O)[C@@H](C)O)C(=O)N[C@@H](CCC(N)=O)C(=O)N[C@@H](CC(C)C)C(=O)N[C@@H](CCC(=O)O)C(=O)N[C@@H](CCC(=O)O)C(=O)N[C@@H](CCC(=O)O)C(=O)N[C@@H](C)C(=O)N[C@H](C(=O)N[C@@H](CCCNC(=N)N)C(=O)N[C@@H](CC(C)C)C(=O)N[C@@H](Cc1ccccc1)C(=O)N[C@H](C(=O)N[C@@H](CCC(=O)O)C(=O)N[C@@H](Cc1c[nH]c2ccccc12)C(=O)N[C@@H](CC(C)C)C(=O)N[C@@H](CCCCN)C(=O)N[C@@H](C)C(=O)NCC(=O)NCC(=O)N1CCC[C@H]1C(=O)N[C@@H](CO)C(=O)N[C@@H](CO)C(=O)NCC(=O)N[C@@H](C)C(=O)N1CCC[C@H]1C(=O)N1CCC[C@H]1C(=O)N1CCC[C@H]1C(=O)N[C@@H](CO)C(N)=O)[C@@H](C)CC)C(C)C [compound 15] (H-Y[Aib]EGTFTSDLSIQLEEEAVRLFIEWLKAGGPSSGAPPPS-NH2) |  |  | > 1000 | 
